Measured values: patent US20030004355A1, “Fused pyrazolyl compounds” (priority 2001, published 2003)

Legend:
platelets = experiment: Inhibition of platelet aggregation (turbidimetric, washed platelets); type: cell-based; conditions: washed rabbit platelets, AA; for inhibitory effect on platelet aggregation induced by different inducers: inducers thrombin, collagen, PAF, read 5 minutes after the inducer
Procedure: In vitro assays can be used to evaluate the efficacy of a fused pyrazolyl compound of this invention in inhibiting platelet aggregation; which is attributable to low intracellular cGMP levels. For example, the compound is incubated in a platelet suspension containing a platelet aggregation factor, and the degree of aggregation is measured turbidimetrically with a dual-channel lumiaggregometer and converted into a percentage value by the method described in Teng et al., Biochem. Biophys Acta. 1987, 924:375-382.
EDTA was added to blood collected from the marginal ear vein of a rabbit to reach a final EDTA concentration of 6 mM. The EDTA-containing blood was then centrifuged at 90×g for 10 minutes at the room temperature. The supernatant, a platelet-rich plasma, was further centrifuged at 500×g for 10 minutes. The platelet pellets thus obtained were washed with a solution containing EDTA (2 mM) and serum albumin (3.5 mg/mL), and then centrifuged again at 500×g for 10 minutes. The pellets were then washed with an EDTA-free Tyrode's solution of the following composition (mM): NaCl (136.8), KCl (2.8), NaHCO3 (11.9), MgCl2 (1.1), NaH2PO4 (0.33), CaCl2 (1.0), and glucose (11.2). After centrifugation under the same conditions, the platelet pellets were suspended in the EDTA-free Tyrode's solution described above. The platelet number was counted by a Coulter Counter (Model ZM) and adjusted to 4.5×10^8 platelets/mL.
A compound to be tested was added to 4 platelet suspensions, which were then incubated at 37° C. for 3 minutes under a stirring condition (900 rpm). One minute after the stirring, four aggregation inducers, i.e., thrombin, collagen, arachidonic acid (AA), and platelet aggregation factor (PAF), were respectively added into the 4 suspensions, causing the platelets to aggregate. Platelet aggregation in each suspension was measured with a dual-channel lumiaggregometer (Model 1020, Payton, Canada) by the turbidimetric method described in Born et al., J. Physiol. 1963, 168:178-195. The percentage values of the platelet aggregation, determined 5 minutes after the addition of each aggregation inducer, were calculated by the method described in Teng et al., Biochem. Biophys Acta. 1987, 924:375-382.

PDEs = experiment: Inhibition of PDE (conversion of [3H]cGMP by platelet lysate supernatant); type: biochemical; conditions: 10 μM compound; washed human platelet supernatant; 10 μM cGMP; 37° C., 30 minutes
Procedure: The efficacy of a compound in inhibiting PDEs can be evaluated in vitro by the following assay. Washed platelets are suspended in a Tris-HCl buffer and disrupted by sonication. The lysate is centrifuged to obtain a supernatant which contains PDEs. An aliquot of the supernatant is taken to prepare a PDE-containing solution. The compound to be tested and cGMP (a substrate for PDE) are added to the solution. Ophiophagus hannah snake venom is subsequently added to remove the phosphate in 5′-GMP (converted from cGMP by PDEs) to form uncharged guanosine. An ion-exchange resin is used to remove the remaining cGMP. The cGMP-free solution is then centrifuged, and an aliquot of the supernatant is taken for quantification of the uncharged guanosine in a liquid scintillation counter. Activity of PDEs is evaluated based on the amount of the uncharged guanosine.
Washed human platelets were prepared by the method described in Teng et al., Biochem. Biophys. Acta. 1989, 990:315-320. They were then suspended in 50 mM pH 7.4 Tris-HCl buffer (containing 5 mM MgCl2) and subsequently disrupted by sonication at 4° C. […] Each cGMP-free solution thus obtained was then centrifuged, and an aliquot (0.5 mL) of the supernatant was taken for quantification of uncharged guanosine in a liquid scintillation counter.

sGC = experiment: Activation of sGC (conversion of [α-32P]GTP to cGMP by platelet lysate supernatant); type: biochemical; conditions: 100 μM compound; washed rabbit platelet supernatant; 30° C., 10 minutes
Procedure: The efficacy of a compound in activating sGC can be evaluated in vitro by the following assay. Washed platelets are suspended in a buffer and disrupted by sonication. The lysate is then centrifuged to obtain a supernatant which is used as the source of sGC. An aliquot of the supernatant and the compound to be tested are added into a buffer containing GTP, a substrate for sGC. The activity of sGC can be determined by the method described in Gerzer et al., J. Pharmacol. Exp. Ther. 1983, 226:180.
Washed rabbit platelets were prepared by the method described in Teng et al., Thromb. Haemost. 1988, 59:304. They were then suspended in 50 mM pH 7.4 Tris-HCl buffer and subsequently disrupted by sonication. The lysate thus obtained was centrifuged at 39,000×g at 4° C. for 20 minutes, and the supernatant was used as the source of sGC. Two 50 μL aliquots of the supernatant were respectively added to two 150 μL pH 7.4 Tris-HCl (50 mM) buffer solutions, each containing GTP (0.2 mM, containing 1×10^6 cpm [α-^32P]GTP), MgCl2 (5 mM), cGMP (2.5 mM), creatine phosphate (15 mM), and creatine phosphokinase (30 μg). One of the two solutions also contained 100 μM compound 3. After incubation at 30° C. for 10 minutes, conversion of GTP to cGMP by sGC was terminated with HCl (200 μL, 0.5 N). […] Radioactivity ([^32P]cGTP) was measured in a liquid scintillation counter to determine the amount of […].

Row | SMILES | inhibitory effect on platelet aggregation induced by different inducers (platelets) | relative effectiveness in inhibiting platelet aggregation among compounds 1-4 (platelets; aggregation induced by thrombin, collagen, and PAF) | inhibition of PDEs (PDEs) | activation of sGC (sGC)
1 | COC(=O)c1ccc(-c2nn(Cc3ccccc3)c3cc4c(cc23)OCO4)o1 [Compound 1, 1-benzyl-3-(5′-methoxycarbonyl-2′-furyl)-5,6-methylenedioxoindazole] | showed inhibitory effect on platelet aggregation | – | – | –
2 | O=C(O)c1ccc(-c2nn(Cc3ccccc3)c3cc4c(cc23)OCO4)o1 [Compound 2, 1-benzyl-3-(5′-hydroxycarbonyl-2′-furyl)-5,6-methylenedioxoindazole] | showed inhibitory effect on platelet aggregation | – | – | –
3 | OCc1ccc(-c2nn(Cc3ccccc3)c3cc4c(cc23)OCO4)o1 [Compound 3, 1-benzyl-3-(5′-hydroxymethyl-2′-furyl)-5,6-methylenedioxoindazole] | showed inhibitory effect on platelet aggregation | the most effective | potent inhibitor of PDEs | effective activator of sGC
4 | COCc1ccc(-c2nn(Cc3ccccc3)c3cc4c(cc23)OCO4)o1 [Compound 4, 1-benzyl-3-(5′-methoxymethyl-2′-furyl)-5,6-methylenedioxoindazole] | showed inhibitory effect on platelet aggregation | – | – | –
